From ChEMBL document CHEMBL1649305, “Novel protease inhibitors (PIs) containing macrocyclic components and 3(R),3a(S),6a(R)-bis-tetrahydrofuranylurethane that are potent against multi-PI-resistant HIV-1 variants in vitro” (Antimicrob Agents Chemother, 2010)
Calls of active or inactive are those of the source. No cut-off for these calls is given here.

Key:
[1] = test system: Human immunodeficiency virus 1; assay: Antiviral activity against HIV1 expressing protease L10F/M46M,I/Q61Q mutant infected in human MT4 cells selected at 1 uM of GRL-396 by MTT assay; type: functional, organism-based; settings: Human immunodeficiency virus 1, MT4
[2] = test system: Human immunodeficiency virus 1; assay: Antiviral activity against HIV1 expressing protease L10I/L24I/M46I/V82I/I84V mutant infected in human MT4 cells selected after 50 passages of GRL-216 by MTT assay; type: functional, organism-based; settings: Human immunodeficiency virus 1, MT4
[3] = test system: Human immunodeficiency virus 1; assay: Antiviral activity against HIV1 NL4-3 infected in human MT4 cells after 50 passages by MTT assay; type: functional, organism-based
[4] = test system: Human immunodeficiency virus 1; assay: Antiviral activity against multidrug-resistant HIV1 isolate MM containing L10I, K43T, M46L, I54V, L63P, A71V, V82A, L90M, and Q92K mutant infected in human PHA-PBMC cells by p24 Gag protein production inhibition assay; settings: Human immunodeficiency virus 1, isolate MM
[5] = test system: Human immunodeficiency virus 2; assay: Antiviral activity against HIV2 EHO infected in human MT2 cells by MTT assay; type: functional, organism-based; settings: Human immunodeficiency virus 2, EHO
[6] = test system: Human immunodeficiency virus 1; assay: Antiviral activity against HIV1 expressing protease L10F/M46I/T91S mutant infected in human MT4 cells selected at 1 uM of GRL-246 by MTT assay; type: functional, organism-based; settings: Human immunodeficiency virus 1, MT4
[7] = test system: Human immunodeficiency virus 1; assay: Antiviral activity against HIV1 expressing protease L10I/G48V/I54V/A71V/I84V/L90M mutant infected in human MT4 cells selected at 5 uM of saquinavir by p24 Gag protein production inhibition assay; settings: Human immunodeficiency virus 1, MT4
[8] = test system: Human immunodeficiency virus 1; assay: Antiviral activity against HIV1 expressing protease L23I/E34Q/K43I/M46I/I50L/G51A/L63P/A71V/V82A/T91A mutant infected in human MT4 cells selected at 5 uM of atazanavir by p24 Gag protein production inhibition assay; settings: Human immunodeficiency virus 1, MT4
[9] = test system: Human immunodeficiency virus 1; assay: Antiviral activity against HIV1 expressing protease L10F/D30N/K45I/A71V/T74S mutant infected in human MT4 cells selected at 5 uM of nelfinavir by MTT assay; type: functional, organism-based; settings: Human immunodeficiency virus 1, MT4
[10] = test system: Human immunodeficiency virus 1; assay: Antiviral activity against HIV1 expressing protease L10F/M46I/I50V/A71V/I84V/L90M mutant infected in human MT4 cells selected at 5 uM of amprenavir by p24 Gag protein production inhibition assay; settings: Human immunodeficiency virus 1, MT4
[11] = test system: Human immunodeficiency virus 1; assay: Antiviral activity against HIV1 NL4-3 infected in human MT4 cells at 1 uM after 33 passages by MTT assay; type: functional, organism-based
[12] = test system: Human immunodeficiency virus 1; assay: Antiviral activity against HIV1 LAI infected in human MT2 cells by MTT assay; type: functional, organism-based; settings: Human immunodeficiency virus 1, LAI
[13] = test system: Human immunodeficiency virus 1; assay: Antiviral activity against HIV1 expressing protease L10F/M46L/I50V/A71Vmutant infected in human MT4 cells selected at 1 uM of GRL-286 by MTT assay; type: functional, organism-based; settings: Human immunodeficiency virus 1, MT4
[14] = test system: Human immunodeficiency virus 2; assay: Antiviral activity against HIV2 ROD infected in human MT2 cells by MTT assay; type: functional, organism-based; settings: Human immunodeficiency virus 2, ISOLATE ROD
MT2 [15] = assay: Ratio of EC50 for HIV2 ROD to EC50 for HIV1 LAI infected in human MT2 cells; type: functional
[16] = test system: Human immunodeficiency virus 1; assay: Antiviral activity against multidrug-resistant HIV1 isolate TM containing L10I, K14R, R41K, M46L, I54V, L63P, A71V, V82A, L90M, and I93L mutant infected in human PHA-PBMC cells by p24 Gag protein production inhibition assay; settings: Human immunodeficiency virus 1, isolate TM
[17] = test system: Human immunodeficiency virus 1; assay: Antiviral activity against HIV1 NL4-3 infected in human MT4 cells at 1 uM after 20 passages by MTT assay; type: functional, organism-based
[18] = test system: Human immunodeficiency virus 1; assay: Antiviral activity against multidrug-resistant HIV1 isolate C containing protease L10I, I15V, K20R, L24I, M36I, M46L, I54V, I62V, L63P, K70Q, V82A, and L89M mutant infected in human PHA-PBMC cells by p24 Gag protein production inhibition assay; settings: Human immunodeficiency virus 1, isolate C
[19] = test system: Human immunodeficiency virus 1; assay: Antiviral activity against wild type HIV1 NL4-3 infected in human MT4 cells by p24 Gag protein production inhibition assay; settings: Human immunodeficiency virus 1, NL4-3, MT4
[20] = test system: Human immunodeficiency virus 1; assay: Antiviral activity against wild type HIV1 ERS104 containing protease L63P mutant infected in human PHA-PBMC cells by p24 Gag protein production inhibition assay; settings: Human immunodeficiency virus 1, ERS104, PBMC
[21] = test system: Human immunodeficiency virus 1; assay: Antiviral activity against HIV1 expressing protease L10F/M46I/I54V/V82A mutant infected in human MT4 cells selected at 5 uM of Lopinavir by p24 Gag protein production inhibition assay; settings: Human immunodeficiency virus 1, MT4
[22] = test system: Human immunodeficiency virus 1; assay: Antiviral activity against multidrug-resistant HIV1 isolate JSL containing L10I, L24I, I33F, E35D, M36I, N37S, M46L, I54V, R57K, I62V, L63P, A71V, G73S, and V82A mutant infected in human PHA-PBMC cells by p24 Gag protein production inhibition assay; settings: Human immunodeficiency virus 1, isolate JSL
[23] = test system: Human immunodeficiency virus 1; assay: Antiviral activity against multidrug-resistant HIV1 isolate B containing protease L10I, K14R, L33I, M36I,M46I, F53I, K55R, I62V, L63P, A71V, G73S, V82A, L90M, and I93L mutant infected in human PHA-PBMC cells by p24 Gag protein production inhibition assay; settings: Human immunodeficiency virus 1, isolate B
[24] = test system: Human immunodeficiency virus 1; assay: Antiviral activity against HIV1 NL4-3 infected in human MT4 cells at 1 uM after 37 passages by MTT assay; type: functional, organism-based
MT2 [25] = assay: Ratio of EC50 for HIV2 EHO to EC50 for HIV1 LAI infected in human MT2 cells; type: functional
[26] = Cytotoxicity against human MT2 cells after 7 days by MTT assay; type: cell-based
[27] = test system: Human immunodeficiency virus 1; assay: Antiviral activity against multidrug-resistant HIV1 isolate G containing L10I, V11I, T12E, I15V, L19I,R41K, M46L, L63P, A71T, V82A, and L90M mutant infected in human PHA-PBMC cells by p24 Gag protein production inhibition assay; settings: Human immunodeficiency virus 1, isolate G
[28] = Selectivity ratio of CC50 for human MT2 cells to EC50 for HIV1 LAI infected human MT2 cells; type: ADME, cell-based; settings: MT2 cells (CC50) and HIV1 LAI infected MT2 cells (EC50)

Compound | EC50 [1] | EC50 [2] | EC50 [4] | EC50 [5] | EC50 [6] | EC50 [7] | EC50 [8] | EC50 [9] | EC50 [10] | EC50 [12] | EC50 [13] | EC50 [14] | EC50 [16] | EC50 [18] | EC50 [19] | EC50 [20] | EC50 [21] | EC50 [22] | EC50 [23] | EC50 [27] | also measured
CC(C)CN(C[C@@H](O)[C@H](Cc1ccccc1)NC(=O)O[C@H]1CCOC1)S(=O)(=O)c1ccc(N)cc1 | 350 nM | 260 nM | 210 nM | 120 nM | 340 nM | 180 nM | 280 nM | 28 nM | > 1000 nM | 24 nM | > 1000 nM | 420 nM | 320 nM | 370 nM | 34 nM | 30 nM | 260 nM | 620 nM | > 1000 nM | 430 nM | Activity [3]: inactive; Activity [11]: inactive; Ratio EC50 (MT2 [15]): 12.3; Activity [17]: inactive; Activity [24]: inactive; Ratio EC50 (MT2 [25]): 3.53; CC50 at 168 h [26]: > 100000 nM
CC(C)CN(C[C@@H](O)[C@H](Cc1ccccc1)NC(=O)O[C@H]1CO[C@H]2OCC[C@H]21)S(=O)(=O)c1ccc(N)cc1 | 16 nM | – | – | – | 29 nM | – | – | – | 290 nM | – | – | 10 nM | – | – | – | – | 25 nM | – | – | – | –
CCC[C@@]1(CCc2ccccc2)CC(O)=C([C@H](CC)c2cccc(NS(=O)(=O)c3ccc(C(F)(F)F)cn3)c2)C(=O)O1 | 42 nM | 29 nM | 350 nM | 300 nM | 95 nM | 22 nM | 410 nM | 39 nM | 220 nM | 170 nM | 37 nM | 330 nM | 380 nM | 380 nM | 320 nM | 120 nM | 310 nM | 230 nM | 180 nM | 240 nM | selectivity ratio [28]: 320; CC50 at 168 h [26]: 54100 nM
CC(C)(C)NC(=O)[C@@H]1C[C@@H]2CCCC[C@@H]2CN1C[C@@H](O)[C@H](Cc1ccccc1)NC(=O)[C@H](CC(N)=O)NC(=O)c1ccc2ccccc2n1 | – | – | 190 nM | – | – | > 1000 nM | 31 nM | 3 nM | 26 nM | – | – | – | 260 nM | 32 nM | 5 nM | 8 nM | 28 nM | 300 nM | 270 nM | 30 nM | –
COC(=O)N[C@H](C(=O)N[C@@H](Cc1ccccc1)[C@@H](O)CN(Cc1ccc(-c2ccccn2)cc1)NC(=O)[C@@H](NC(=O)OC)C(C)(C)C)C(C)(C)C [ATAZANAVIR] | 24 nM | 14 nM | 180 nM | – | 32 nM | 210 nM | > 1000 nM | 27 nM | 6 nM | – | – | – | 65 nM | 65 nM | 4 nM | 2 nM | 36 nM | 430 nM | 200 nM | 33 nM | –
